Results published in patent publication US8114843B2, “Photoreactive regulator of protein function and methods of use thereof” (The Regents of the University of California, priority 2005, dated 2012).

How the values were obtained:
Kv4.2 = target: T1, Kv4.2 (Homo sapiens, UniProt Q9NZV8); assay: PAL photoswitching, whole-cell patch clamp in HEK cells; type: cell-based; conditions: n=6
T1 construct: expressed in transfected cells; host or cells: HEK cells
T1 sequence (Q9NZV8 1-630): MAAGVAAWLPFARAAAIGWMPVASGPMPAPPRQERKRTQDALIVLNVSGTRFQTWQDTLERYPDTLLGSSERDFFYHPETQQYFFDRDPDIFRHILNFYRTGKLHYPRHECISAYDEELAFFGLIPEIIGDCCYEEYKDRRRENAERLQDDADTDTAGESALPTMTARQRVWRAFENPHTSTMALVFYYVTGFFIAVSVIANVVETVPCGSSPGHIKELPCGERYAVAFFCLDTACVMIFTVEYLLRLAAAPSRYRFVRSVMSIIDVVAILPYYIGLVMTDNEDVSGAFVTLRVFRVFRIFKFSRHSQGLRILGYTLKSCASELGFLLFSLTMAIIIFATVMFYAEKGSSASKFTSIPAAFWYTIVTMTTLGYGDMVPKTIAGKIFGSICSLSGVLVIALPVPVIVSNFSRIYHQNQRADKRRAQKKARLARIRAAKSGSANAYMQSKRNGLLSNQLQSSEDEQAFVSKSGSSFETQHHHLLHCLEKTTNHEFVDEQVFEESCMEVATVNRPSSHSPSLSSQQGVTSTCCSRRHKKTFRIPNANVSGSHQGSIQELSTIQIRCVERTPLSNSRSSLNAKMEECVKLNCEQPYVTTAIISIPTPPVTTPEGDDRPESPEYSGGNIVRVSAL
Description: Cell culture and transfection. HEK293 cells were grown in DMEM containing 5% fetal bovine serum, at 37° C., 7% CO2. For electrophysiology, cells were plated at 12×10^5 cells/cm^2 on poly-L-lysine coated coverslips and transfected using the calcium phosphate method. Recordings were performed 24-36 hours after transfection.
(§1) PAL attachment. HEK293 and hippocampal cells were rinsed in extracellular solution containing in mM: 138 NaCl, 1.5 KCl, 1.2 MgCl2, 2.5 CaCl2, 5 HEPES, 10 glucose and incubated at 37° C. in the dark with 200-250 μM PAL for 15 minutes. For slices, AAQ was diluted to 200 μM in aCSF and treatment was performed in the dark at room temperature for 10 minutes.
Electrophysiological recording. Recordings from HEK293 and hippocampal neurons were made in the whole-cell patch clamp configuration using a PC-501A amplifier (Warner Instruments). Pulse protocols and measurements were carried out with pCLAMP and a Digidata 1322 interface (Axon Instruments). For voltage-clamp experiment, cells were held at −70 mV. Data was recorded at 20 kHz and filtered at 2 kHz. Recording pipettes with 2.5-4 MΩ resistance were filled with intracellular solution containing in mM: 10 NaCl, 135 K-gluconate, 10 HEPES, 2 MgCl2, 2 MgATP, 1 EGTA, pH 7.4.
Illumination was provided using a xenon lamp (Sutter Instruments) with narrow band pass filters (380 BP10 for UV and 500 BP5 for visible light respectively). Excitation filters were changed using a lambda 10-2 filter changer (Sutter Instruments) controlled via pCLAMP software.
Percent photoswitching was defined as the difference between current in UV and visible light divided by current in UV. All data shown in bar graphs are averages±standard error of the mean.

[1] = test system: voltage-gated outward current (endogenous K+ channels) in cultured hippocampal neurons; assay: Photocontrol of K+ current in cultured hippocampal neurons; type: cell-based, rat; conditions: 200 μM, 15 min in the dark
Description: Hippocampal neurons were prepared from neonatal Sprague-Dawley rats according to standard procedures (Goslin) and grown on poly-L-lysine coated coverslips in MEM supplemented with 5% fetal bovine serum, B27 (Invitrogen), glutamine and serum extender (BD Biosciences). Animal care and experimental protocols were approved by the UC Berkeley Animal Care and Use Committee. Recordings were performed 9-16 days after plating. The Shaker construct also contains an N-terminal deletion (Δ6-46) to minimize fast inactivation.
as §1
(§2) Electrophysiological recording. Recordings from HEK293 and hippocampal neurons were made in the whole-cell patch clamp configuration using a PC-501A amplifier (Warner Instruments). Pulse protocols and measurements were carried out with pCLAMP and a Digidata 1322 interface (Axon Instruments). For voltage-clamp experiment, cells were held at −70 mV. Data was recorded at 20 kHz and filtered at 2 kHz. […]

[2] = test system: cultured hippocampal neurons; assay: Live/Dead assay after PAL treatment; type: cell-based; conditions: 200 μM
From the text: Live/Dead assay. After PAL treatment, hippocampal neurons were processed for the live dead assay (Molecular Probes) according to the manufacturer's instructions. Cells were counted in 4-8 fields for each treatment condition.

rat retina = assay: AAQ injection into the rat eye (ERG, retinal toxicity); type: in vivo
Description: Rats were dark-adapted overnight, and the entire procedure was done under very dim red light. Rats were anesthetized and placed in a standard electroretinogram (ERG) setup. Recording electrodes were embedded in contact-like cups, which were mounted onto each eye with a conductive adherent fluid. Reference electrodes were placed in the mouth. A light source emitted brief flashes of white light at various intensities. The electrical response of the retina to each light flash was recorded; three trials per intensity were averaged together. Under normal conditions, the ERG will consist of a small downward deflection (A-wave), which reflects the activity of photoreceptors, and a larger upward deflection (B-wave), which reflects the activity of bipolar cells.

[3] = test system: transient inward current (voltage-gated Na+ and Ca2+ currents) in neurons; assay: Voltage-clamp of transient inward current in PAL-treated neurons; type: cell-based, rat; conditions: Cs+ in the patch pipette
Description: as §2

In the case of `C=CC(=O)Nc1ccc(/N=N/c2ccc(NC(=O)C[N+](CC)(CC)CC)cc2)cc1` [AAQ], the “current turned on and off by light” value (Kv4.2) is reported as roughly 80%, the “percent of the outward current that could be photoswitched” value [1] is reported as 63±8% and the death of neurons ([2]; 15 min) is reported as roughly 10%. For the same molecule, the loss of neurons ([2]; 60 min) was roughly 15%, the “toxic consequences on rat retina (ERG)” value (rat retina; 7 days post injection) was “without toxic consequences” and the “effects on retinal neurons after injection into the vitreous humor” value (rat retina; rat eye) was “no detectable deleterious effects”. For the same molecule, the “light-sensitivity of transient inward current” value [3] was “does not become light-sensitive”.
